Structures are written as SMILES.

In one test the target is T1, Jak1 (Homo sapiens, UniProt P23458).
T1 construct: using a recombinant purified GST-tagged catalytic domain for each enzyme; GST; purchased Invitrogen M4290
T1 sequence (P23458 875-1153 limits assumed): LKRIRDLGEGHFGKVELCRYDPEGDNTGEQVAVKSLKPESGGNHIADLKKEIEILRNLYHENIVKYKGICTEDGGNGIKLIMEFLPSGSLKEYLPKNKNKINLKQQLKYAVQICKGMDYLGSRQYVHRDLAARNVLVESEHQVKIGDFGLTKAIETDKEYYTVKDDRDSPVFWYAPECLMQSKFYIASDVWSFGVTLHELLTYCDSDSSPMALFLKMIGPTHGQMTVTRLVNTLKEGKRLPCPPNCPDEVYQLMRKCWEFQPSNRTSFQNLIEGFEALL
Briefly: Jak Biochemical HTRF Assay (Jak1). The following applies: IC50 class, recombinant GST-tagged catalytic domain, read-out: Jak1 activity. An excerpt:
Compounds of formula I can be prepared according to the general procedures described in the Schemes and Examples herein, using appropriate materials. Representative compounds of the present invention are exemplified herein below. The compounds exemplified are not, however, to be construed as limiting the scope of the invention in any manner. The examples further illustrate details for the preparation of the compounds of the present invention. Those skilled in the art will readily understand that known variations of protecting groups, of reagents, as well as of the conditions and processes of the following preparative procedures, can be used to prepare these compounds. It is also understood that whenever a chemical reagent is not commercially available, such a chemical reagent can be readily prepared by those skilled in the art by either following or adapting known methods described in the literature or described herein. Chiral analogs were prepared via incorporation of chiral reagents or obtained after chiral chromatography separation of a racemically generated analog. All temperatures are degrees Celsius unless otherwise noted. Mass spectra (MS) were measured either by electrospray ion-mass spectroscopy (ESMS) or by atmospheric pressure chemical ionization mass spectroscopy (APCI). Jak1 data were obtained using the in vitro assay described below.
Jak Biochemical HTRF Assay Protocol
The ability of compounds to inhibit the activity of Jak1, Jak2, Jak3, and Tyk2 was measured using a recombinant purified GST-tagged catalytic domain for each enzyme (Invitrogen Jak1 #M4290, […]) in an HTRF format biochemical assay. The reactions employed a common peptide substrate, LCB-EQEDEPEGDYFEWLW-NH2 (in-house). The basic assay protocol is as follows: First, […] of diluted compounds in DMSO were dispensed into the wells of a dry 384-well Black plate (Greiner #781076) using a Labcyte Echo 555 acoustic dispenser. Subsequent reagent additions employed an Agilent Bravo. Next, 18 μL, of 1.11X enzyme and 1.11X substrate in 1X assay buffer (Invitrogen kinase buffer #PV3189, 2 mM DTT, 0.05% BSA) were added to the wells and shaken and then preincubated for 30 minutes at room temperature to allow compound binding to equilibrate. After equilibration, 2 μL of 10X ATP in 1X assay buffer was added to initiate the kinase reaction and the plates were shaken and then incubated at room temperature for 120 minutes. At the end of the incubation, 20 μL of 2X stop buffer (streptavidin-Dylight (Thermo #21845), Eu-tagged pY20 antibody (Perkin Elmer #AD0067), EDTA, HEPES, and Triton) was added to quench the reaction. Plates were shaken and centrifuged and then incubated 60 minutes at room temperature and then read on a Perkin Elmer Envision (λex=337 nm, λem=665 and 615 nm, TRF delay time=20 μs). HTRF signal=10,000*665 nm reading/615 nm reading. After normalization to untreated controls, the percent inhibition of the HTRF signal at each compound concentration was calculated. The plot of percent inhibition versus the log of compound concentration was fit with a 4-parameter dose response equation to calculate IC50 values.
On the technique in general: In TR-FRET formats the signal depends on donor and acceptor labels being close together.
As to `O=C(OCCn1ccc2ccccc21)N1CCC[C@@H]2[C@H]1CCN2c1ncnc2[nH]ccc12` [Example 3-45, 2-(1H-indol-1-yl)ethyl (3aR,7aR)-1-(7H-pyrrolo[2,3-d]pyrimidin-4-yl)octahydro-4H-pyrrolo[3,2-b]pyridine-4-carboxylate], the IC50 lay within 10 to 100 nM. The same measure, in the same setting: then `O=C(OCC1CCCCC1)N1CCC[C@@H]2[C@H]1CCN2c1ncnc2[nH]ccc12` [Example 3-46, cyclohexylmethyl (3aR,7aR)-1-(7H-pyrrolo[2,3-d]pyrimidin-4-yl)octahydro-4H-pyrrolo[3,2-b]pyridine-4-carboxylate], with 10 to 100 nM. For the compound `O=C(OCCCc1ccccc1)N1CCC[C@@H]2[C@H]1CCN2c1ncnc2[nH]ccc12` [Example 3-47, 3-phenylpropyl (3aR,7aR)-1-(7H-pyrrolo[2,3-d]pyrimidin-4-yl)octahydro-4H-pyrrolo[3,2-b]pyridine-4-carboxylate], the IC50 lay in the range of 1 to 10 nM. Same read-out and setting: then `O=C(OCCCc1cccnc1)N1CCC[C@@H]2[C@H]1CCN2c1ncnc2[nH]ccc12` [Example 3-48, 3-pyridin-3-ylpropyl (3 aR,7 aR)-1-(7H-pyrrolo[2,3-d]pyrimidin-4-yl)octahydro-4H-pyrrolo[3,2-b]pyridine-4-carboxylate], with 10 to 100 nM.

Regarding `COC(=O)c1ccc(COC(=O)N2CCC[C@@H]3[C@H]2CCN3c2ncnc3[nH]ccc23)cc1` [Example 4, 4-(methoxycarbonyl)benzyl (3aR,7aR)-1-(7H-pyrrolo[2,3-d]pyrimidin-4-yl)octahydro-4H-pyrrolo[3,2-b]pyridine-4-carboxylate], the IC50 lay in the range of 1 to 10 nM. Same read-out and setting: then `COC(=O)c1ccc(COC(=O)N2CCC[C@H]3[C@@H]2CCN3c2ncnc3[nH]ccc23)cc1` [Example 5, 4-(methoxycarbonyl)benzyl (3aS,7aS)-1-(7H-pyrrolo[2,3-d]pyrimidin-4-yl)octahydro-4H pyrrolo[3,2-b]pyridine-4-carboxylate], with 100 to 1000 nM; and `O=C(O)c1ccc(COC(=O)N2CCC[C@@H]3[C@H]2CCN3c2ncnc3[nH]ccc23)cc1` [Example 6, 4-[({[(3aR,7aR)-1-(7H-pyrrolo[2,3-d]pyrimidin-4-yl)octahydro-4H-pyrrolo[3,2-b]pyridine-4-yl]carbonyl}oxy)methyl]benzoic acid], with 100 to 1000 nM; and `CN(C)C(=O)c1ccc(COC(=O)N2CCC[C@@H]3[C@H]2CCN3c2ncnc3[nH]ccc23)cc1` [Example 7-1, 4-(dimethylcarbamoyl)benzyl (3aR,7aR)-1-(7H-pyrrolo[2,3-d]pyrimidin-4-yl)octahydro-4H-pyrrolo[3,2-b]pyrindine-4-carboxylate], with 100 to 1000 nM. Take `NC(=O)c1ccc(COC(=O)N2CCC[C@@H]3[C@H]2CCN3c2ncnc3[nH]ccc23)cc1` [Example 7-2, 4-carbamoylbenzyl (3aR,7aR)-1-(7H-pyrrolo[2,3-d]pyrimidin-4-yl)octahydro-4H-pyrrolo[3,2-b]pyridine-4-carboxylate]: the IC50 lay within 10 to 100 nM.

On to `CNC(=O)c1ccc(COC(=O)N2CCC[C@@H]3[C@H]2CCN3c2ncnc3[nH]ccc23)cc1` [Example 7-3, 4-(methylcarbamoyl)benzyl (3aR,7aR)-1-(7H-pyrrolo[2,3-d]pyrimidin-4-yl)octahydro-4H-pyrrolo[3,2-b]pyridine-4-carboxylate], for which the IC50 was in the range of 100 to 1000 nM. The same measure, in the same setting: then `CN(C)CCNC(=O)c1ccc(COC(=O)N2CCC[C@@H]3[C@H]2CCN3c2ncnc3[nH]ccc23)cc1` [Example 7-4, 4-{[2-(dimethylamino)ethyl]carbamoyl}benzyl (3aR,7aR)-1-(7H-pyrrolo[2,3-d]pyrimidin-4-yl)octahydro-4H-pyrrolo[3,2-b]pyridine-4-carboxylate], with 100 to 1000 nM. Same read-out and setting: then `CN(C)CCN(C)C(=O)c1ccc(COC(=O)N2CCC[C@@H]3[C@H]2CCN3c2ncnc3[nH]ccc23)cc1` [Example 7-5, 4-{[2-(dimethylamino)ethyl](methyl)carbamoyl}benzyl (3aR,7aR)-1-(7H-pyrrolo[2,3-d]pyrimidin-4-yl)octahydro-4H-pyrrolo[3,2-b]pyridine-4-carboxylate], with 100 to 1000 nM; and `CC(C)(C)OC(=O)NCc1ccc(COC(=O)N2CCC[C@@H]3[C@H]2CCN3c2ncnc3[nH]ccc23)cc1` [Example 8-1, 4-{[(tert-butoxycarbonyl)amino]methyl}benzyl(3aR,7aR)-1-(7H-pyrrolo[2,3-d]pyrimidin-4-yl)octahydro-4-pyrrolo[3,2-b]pyridine-4-carboxylate], with 100 to 1000 nM; and `C[C@H](OC(=O)N1CCC[C@@H]2C1CCN2c1ncnc2[nH]ccc12)c1ccccc1` (stereo partly drawn) [Example 8-2, (1S)-1-phenylethyl (3aR,7 aR)-1-(7H-pyrrolo[2,3-d]pyrimidin-4-yl)octahydro-4-pyrrolo[3,2-b]pyridine-4-carboxylate], with 10 to 100 nM. With `NCc1ccc(COC(=O)N2CCC[C@@H]3[C@H]2CCN3c2ncnc3[nH]ccc23)cc1` [Example 9, 4-(aminomethyl)benzyl (3aR,7aR)-1-(7H-pyrrolo[2,3-d]pyrimidin-4-yl)octahydro-4H-pyrrolo[3,2-b]pyridine-4-carboxylate], the IC50 was 100 to 1000 nM.

On to `O=C(OCc1ccc(CO)cc1)N1CCC[C@@H]2[C@H]1CCN2c1ncnc2[nH]ccc12` [Example 10, 4-(hydroxymethyl)benzyl (3aR,7aR)-1-(7H-pyrrolo[2,3-d]pyrimidin-4-yl)octahydro-4H-pyrrolo[3,2-b]pyridine-4-carboxylate], for which the IC50 was 100 to 1000 nM. In the case of `CC(C)(C)OC(=O)N1CCC[C@@H]2[C@H]1CCN2c1ncnc2[nH]ccc12` [Example 11, tert-butyl (3aR,7aR)-1-(7H-pyrrolo[2,3-d]pyrimidin-4-yl)octahydro-4H-pyrrolo[3,2-b]pyridin-4-carboxylate], the IC50 was 100 to 1000 nM. Same read-out and setting: then `N#CCC(=O)N1CCCC2C1CCN2c1ncnc2[nH]ccc12` [Example 12, (3aS,7aS and 3aR,7aR) 3-oxo-3-[1-(7H-pyrrolo[2,3-d]pyrimidin-4-yl)octahydro-4H-pyrrolo[3,2-b]pyridin-4-yl]propanenitrile], with 10 to 100 nM. Take `COC(=O)c1ccc(CCCN2CCC[C@@H]3[C@H]2CCN3c2ncnc3[nH]ccc23)cc1` [Example 13, methyl 4-{3-[(3aR,7aR)-1-(7H-pyrrolo[2,3-d]pyrimidin-4-yl)octahydro-4H-pyrrolo[3,2-b]pyridin-4-yl]propyl}benzoate]: the IC50 lay within 100 to 1000 nM. Same read-out and setting: then `O=C(O)c1ccc(CCCN2CCC[C@@H]3[C@H]2CCN3c2ncnc3[nH]ccc23)cc1` [Example 14, 4-{3-[(3aR,7aR)-1-(7H-pyrrolo[2,3-d]pyrimidin-4-yl)octahydro-4H-pyrrolo[3,2-b]pyridin-4-yl]propyl}benzoic acid], with 100 to 1000 nM; and `Cc1cc2c(N3CCC4C3CCCN4C(=O)OCc3ccccc3)ncnc2[nH]1` [Example 15, (3aS,7aS and 3aR,7aR) benzyl 1-(6-methyl-7H-pyrrolo[2,3-d]pyrimidin-4-yl)octahydro-4H-pyrrolo[3,2-b]pyridine-4-carboxylate], with 10 to 100 nM. Take `O=C(OCc1ccccc1)N1CCC2C1CCCN2c1ncnc2[nH]ccc12` [Example 16, (3aS,7aS and 3aR,7aR) benzyl 4-(7H-pyrrolo[2,3-d]pyrimidin-4-yl)octahydro-1H-pyrrolo[3,2-b]pyridine-1-carboxylate]: the IC50 lay in the range of 10 to 100 nM.

Staying with this test, now noted: recombinant GST-tagged catalytic domain, 31.8 μM ATP, read-out: Representative IC50 values.
Consider `COC(=O)c1ccc(COC(=O)N2CCC[C@@H]3[C@H]2CCN3c2ncnc3[nH]ccc23)cc1` [Example 4, 4-(methoxycarbonyl)benzyl (3aR,7aR)-1-(7H-pyrrolo[2,3-d]pyrimidin-4-yl)octahydro-4H-pyrrolo[3,2-b]pyridine-4-carboxylate], for which the IC50 was determined as 2 nM. Turning to `N#CCC(=O)N1CCCC2C1CCN2c1ncnc2[nH]ccc12` [Example 12, (3aS,7aS and 3aR,7aR) 3-oxo-3-[1-(7H-pyrrolo[2,3-d]pyrimidin-4-yl)octahydro-4H-pyrrolo[3,2-b]pyridin-4-yl]propanenitrile], the IC50 turned out to be 26 nM. The same measure, in the same setting: then `COC(=O)c1ccc(CCCN2CCC[C@@H]3[C@H]2CCN3c2ncnc3[nH]ccc23)cc1` [Example 13, methyl 4-{3-[(3aR,7aR)-1-(7H-pyrrolo[2,3-d]pyrimidin-4-yl)octahydro-4H-pyrrolo[3,2-b]pyridin-4-yl]propyl}benzoate], with 169 nM; and `O=C(OCc1ccccc1)N1CCC2C1CCCN2c1ncnc2[nH]ccc12` [Example 16, (3aS,7aS and 3aR,7aR) benzyl 4-(7H-pyrrolo[2,3-d]pyrimidin-4-yl)octahydro-1H-pyrrolo[3,2-b]pyridine-1-carboxylate], with 31 nM.
